Test: Coinfusion of carboplatin and gadolinium-DTPA into pig corona radiata (T1 MRI, LA-ICP-MS)
Format: in vivo
Settings: carboplatin 0.03 mg/ml coinfused with 0.3% gadolinium-DTPA, CED
Method: Carboplatin infusions were undertaken into male Large White Landrace pigs weighing 45 kg using a cannula system developed in-house. Pig anaesthesia, head immobilisation and brain imaging were achieved as we have previously described White et al (2010). Infusions of 120 μl 0.03 mg/ml carboplatin mixed with 0.3% (6 μmol/l) Gadolinium-DTPA (Magnevist: Bayer Healthcare, Germany), were undertaken bilaterally into the corona radiata using a cannula composed of a length of fused silica (outer diameter 220 μm, inner diameter 150 μm) bonded to a glass Hamilton syringe. Except for the distal 3 mm, this fused silica tube was supported along its length by a series of zirconia tubes to ensure that it could be accurately inserted to target. Infusions were performed using the following regime: 0.5 μl/min for 5 min, 1 μl/min for 5 min, 2.5 μl/min for 5 min and then 5 μl/min for 20 min. This regime was employed in an attempt to minimise the occurrence of a sudden surge in pressure at the catheter tip due to elasticity in the infusion tubing. 120 μl was infused as this is the largest volume that we have previously infused into pig white matter without leakage into the ventricular system. Following infusion completion, the cannula was left in place for 10 min prior to being withdrawn slowly by hand. CSF leakage from the burr hole and cannula track was sealed with Cerebond prior to wound closure. […]

Gadolinium-DTPA
distribution in pig corona radiata (LA-ICP-MS): distributed over a larger volume of brain than carboplatin
